Data on 15 molecules can be found in US10399948B2, “Negative allosteric modulators of metabotropic glutamate receptor 3” (Vanderbilt University, priority 2015, dated 2019).

One experiment has as its target rat mGlu2 (Rattus norvegicus (Rat), UniProt P31421). Kind of experiment: mGlu2 Ca2+ flux assay. It counts as cell-based. The conditions noted are these: NAM, glutamate EC80; >30,000 = no measurable activity. Here is the method: Gα15 HEK293 cells stably expressing rat mGlu2 were plated in black-walled, clear-bottomed, poly-D-lysine coated 384-well plates in 20 μL of assay medium (DMEM containing 10% dialyzed FBS, 20 mM HEPES, and 1 mM sodium pyruvate) at a density of 12K cells/well. The cells were grown overnight at 37° C. in the presence of 5% CO2. The next day, medium was removed and the cells incubated with 20 μL of […] Fluo-4, AM prepared as a 2.3 mM stock in DMSO and mixed in a 1:1 ratio with 10% (w/v) pluronic acid F-127 and diluted in assay buffer (Hank's balanced salt solution, 20 mM HEPES, and 2.5 mM probenecid) for 45 minutes at 37° C. Dye was removed, 20 μL of assay buffer was added, and the plate was incubated for 5 minutes at room temperature.
(§1) Ca^2+ flux was measured using the Functional Drug Screening System (FDSS7000, Hamamatsu, Japan). After establishment of a fluorescence baseline for about 3 seconds, the compounds of the present invention were added to the cells, and the response in cells was measured. 2.3 minutes later an EC20 concentration of the mGlu2 receptor agonist glutamate was added to the cells, and the response of the cells was measured for 1.9 minutes; an EC80 concentration of agonist was added and readings taken for an additional 1.7 minutes. All test compounds were dissolved and diluted to a concentration of 10 mM in 100% DMSO. Compounds were then serially diluted 1:3 in DMSO into 10 point concentration response curves, transferred to daughter plates, and further diluted into assay buffer to a 2× stock. Calcium fluorescence measures were recorded as fold over basal fluorescence; raw data was then normalized to the maximal response to glutamate.
(§2) The raw data file containing all time points was used as the data source in the analysis template. This was saved by the FDSS as a tab-delimited text file. Data were normalized using a static ratio function (F/F0) for each measurement of the total 360 values per well divided by each well's initial value. Data were then reduced to peak amplitudes (Max−Initial Min) using a time range that starts approximately 3 seconds prior to the glutamate EC80 addition and continues for approximately 90 seconds. This is sufficient time to capture the peak amplitude of the cellular calcium response. Individual amplitudes were expressed as % ECMax by multiplying each amplitude by 100 and then dividing the product by the mean of the amplitudes derived from the glutamate ECMax-treated wells. IC50 values for test compounds were generated by fitting the normalized values versus the log of the test compound concentration (in mol/L) using a 4 parameter logistic equation where none of the parameters were fixed. Each of the three values collected at each concentration of test compound were weighted evenly.
(In general: A change in cytosolic calcium serves as a functional read-out for many receptors and channels.)

A further experiment concerns the target rat mGlu3 (Rattus norvegicus (Rat), UniProt P31422). In words: mGlu3 Ca2+ flux assay. The class given is cell-based. The conditions noted are these: for IC50: NAM, glutamate EC80, >10,000 = decrease without plateau, >30,000 = no measurable activity; for remaining activity at 30 µM: response at 30 μM test compound as percentage of maximal response to glutamate, read-out: rat mGlu3 Glu max (%). Here is the method: Gα15/TREx cells stably expressing rat mGlu3 were plated in black-walled, clear-bottomed, poly-D-lysine coated 384-well plates in 20 μL of assay medium (DMEM containing 10% dialyzed FBS, 20 mM HEPES, 25 ng/mL tetracycline, 100 units/mL penicillin/streptomycin plus 250 ng/mL Fungizone, and 1 mM sodium pyruvate) at a density of 15K cells/well. The cells were grown overnight at 37° C. in the presence of 5% CO2. […] Dye was removed, 20 μL of assay buffer was added, and the plate was incubated for 10 minutes at room temperature.
as §1, with “mGlu3” for “mGlu2”
as §2, with “% EMax” for “% ECMax”, “wells. EC50” for “wells. IC50”

rat mGlu3, sequence (P31422 23-879): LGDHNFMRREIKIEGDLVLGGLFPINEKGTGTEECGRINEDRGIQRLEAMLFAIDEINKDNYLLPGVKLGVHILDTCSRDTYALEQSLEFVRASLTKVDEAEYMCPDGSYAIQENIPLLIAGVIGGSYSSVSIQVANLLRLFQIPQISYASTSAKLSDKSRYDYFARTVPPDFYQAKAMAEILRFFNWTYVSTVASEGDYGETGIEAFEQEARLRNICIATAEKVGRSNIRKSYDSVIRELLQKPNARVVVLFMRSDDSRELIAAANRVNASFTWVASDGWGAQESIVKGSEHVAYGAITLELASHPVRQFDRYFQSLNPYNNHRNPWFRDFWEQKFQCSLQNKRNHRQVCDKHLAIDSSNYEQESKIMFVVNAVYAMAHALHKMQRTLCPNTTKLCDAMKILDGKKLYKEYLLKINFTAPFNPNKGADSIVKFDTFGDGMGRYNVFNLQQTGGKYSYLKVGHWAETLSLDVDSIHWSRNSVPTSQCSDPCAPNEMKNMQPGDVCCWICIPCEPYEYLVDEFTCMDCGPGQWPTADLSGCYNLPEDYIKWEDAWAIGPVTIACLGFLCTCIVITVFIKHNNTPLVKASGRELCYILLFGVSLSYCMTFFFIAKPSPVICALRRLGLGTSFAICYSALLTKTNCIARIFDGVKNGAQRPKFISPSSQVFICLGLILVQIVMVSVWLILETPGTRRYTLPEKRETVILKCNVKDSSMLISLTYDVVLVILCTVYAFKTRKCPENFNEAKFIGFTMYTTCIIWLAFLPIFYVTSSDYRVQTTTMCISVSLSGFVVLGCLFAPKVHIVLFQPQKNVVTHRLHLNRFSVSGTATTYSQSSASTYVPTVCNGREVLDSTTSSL
rat mGlu2, sequence (P31421 19-872): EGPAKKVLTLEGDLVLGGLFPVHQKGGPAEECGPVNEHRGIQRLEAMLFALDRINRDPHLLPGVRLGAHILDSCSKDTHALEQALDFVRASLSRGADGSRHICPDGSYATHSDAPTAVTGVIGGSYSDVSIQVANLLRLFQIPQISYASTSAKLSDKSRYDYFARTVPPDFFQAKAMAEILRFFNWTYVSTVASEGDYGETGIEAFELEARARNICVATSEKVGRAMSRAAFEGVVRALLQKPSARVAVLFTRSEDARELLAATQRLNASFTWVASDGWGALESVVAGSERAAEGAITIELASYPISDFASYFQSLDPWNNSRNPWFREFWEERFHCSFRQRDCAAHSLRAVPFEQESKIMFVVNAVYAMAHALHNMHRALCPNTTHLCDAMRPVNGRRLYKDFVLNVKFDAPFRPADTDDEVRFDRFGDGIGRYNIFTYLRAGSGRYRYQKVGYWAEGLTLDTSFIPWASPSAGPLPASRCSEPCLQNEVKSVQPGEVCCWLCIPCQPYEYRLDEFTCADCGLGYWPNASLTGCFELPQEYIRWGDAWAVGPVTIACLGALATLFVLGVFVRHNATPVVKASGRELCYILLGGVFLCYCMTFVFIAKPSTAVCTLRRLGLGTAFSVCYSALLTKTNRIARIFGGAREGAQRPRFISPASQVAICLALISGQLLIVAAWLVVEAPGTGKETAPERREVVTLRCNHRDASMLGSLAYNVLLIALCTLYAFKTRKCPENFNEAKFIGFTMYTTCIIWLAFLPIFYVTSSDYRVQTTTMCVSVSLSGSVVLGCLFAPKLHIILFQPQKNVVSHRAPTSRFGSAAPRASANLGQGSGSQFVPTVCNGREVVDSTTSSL

In turn, `O=c1cc(OCCCc2ccccc2)ccn1-c1ccc(F)cc1` [Compound 2, 1-(4-fluorophenyl)-4-(3-phenylpropoxy)pyridin-2(1H)-one] returned an IC50 against rat mGlu2 above 30 µM. On rat mGlu3, 5.41 µM corresponded to half-maximal inhibition (IC50) and the remaining activity at 30 µM came out at 1.95%.

In turn, `O=c1cc(OCCSc2ccccc2)ccn1-c1ccc(F)cc1` [Compound 3, 1-(4-fluorophenyl)-4-(2-(phenylthio)ethoxy)pyridin-2(1H)-one] displayed an IC50 at rat mGlu2 above 30 µM. Moreover, on rat mGlu3, the 50% inhibitory concentration (IC50) is 3.89 µM and the remaining activity at 30 µM worked out at 1.42%.

With `CN(CCOc1ccn(-c2ccc(F)cc2)c(=O)c1)c1ccccc1` [Compound 4, 1-(4-fluorophenyl)-4-(2-(methyl(phenyl)amino)ethoxy)pyridin-2(1H)-one], the IC50 against rat mGlu2 is above 30 µM. Further, at rat mGlu3, the IC50 was determined as 4 µM and the remaining activity at 30 µM stood at 0%.

With `O=c1cc(OCCOC2CCCC2)ccn1-c1ccc(F)cc1` [Compound 6, 4-(2-(cyclopentyloxy)ethoxy)-1-(4-fluorophenyl)pyridin-2(1H)-one], the IC50 against rat mGlu3 is above 30 µM.

On to `O=c1cc(OCCOC2CCCCC2)ccn1-c1ccc(F)cc1` [Compound 7, 4-(2-(cyclohexyloxy)ethoxy)-1-(4-fluorophenyl)pyridin-2(1H)-one], for which, at rat mGlu3, the IC50 was above 10 µM and the remaining activity at 30 µM was 15.5%.

For the molecule `O=c1cc(OCC[S+]([O-])c2ccccc2)ccn1-c1ccc(F)cc1` (centres unmarked) [Compound 8, 1-(4-fluorophenyl)-4-(2-(phenylsulfinyl)ethoxy)pyridin-2(1H)-one], the IC50 against rat mGlu3 was above 30 µM.

`O=c1cc(OCCS(=O)(=O)c2ccccc2)ccn1-c1ccc(F)cc1` [Compound 9, 1-(4-fluorophenyl)-4-(2-(phenylsulfonyl)ethoxy)pyridin-2(1H)-one]: at rat mGlu3, the IC50 was above 30 µM.

`O=c1cc(OCCOc2ccccc2)ccn1-c1ccccc1F` [Compound 10, 1-(2-Fluorophenyl)-4-(2-phenoxyethoxy)pyridin-2-one] registered an IC50 against rat mGlu2 above 30 µM. On rat mGlu3, the IC50 was determined as 3.93 µM and the remaining activity at 30 µM was 1.16%.

Regarding `O=c1cc(OCCOc2ccccc2)ccn1-c1ccccn1` [Compound 11, 4-(2-phenoxyethoxy)-2H-[1,2′-bipyridin]-2-one], the IC50 against rat mGlu2 and against rat mGlu3 was above 30 µM in each case.

As for `O=c1cc(OCCOc2ccccc2)ccn1-c1cccc(F)n1` [Compound 12, 6′-fluoro-4-(2-phenoxyethoxy)-2H-[1,2′-bipyridin]-2-one], the IC50 against rat mGlu2 is above 30 µM; at rat mGlu3, above 10 µM. In addition, the remaining activity at 30 µM on rat mGlu3 is 33.2%.

`O=c1cc(OCCOc2ccccc2)ccn1-c1ccncc1` [Compound 13, 4-(2-phenoxyethoxy)-2H-[1,4′-bipyridin]-2-one]: the IC50 against rat mGlu2 and at rat mGlu3 was above 30 µM in each case.

On to `O=c1nc(OCCOc2ccccc2)ccn1-c1ccc(F)cn1` [Compound 16, 1-(5-fluoropyridin-2-yl)-4-(2-phenoxyethoxy)pyrimidin-2(1H)-one], for which the IC50 at rat mGlu2 was above 30 µM; on rat mGlu3, above 10 µM. For the same molecule, the remaining activity at 30 µM at rat mGlu3 worked out at 23.9%.

At rat mGlu2, `N#Cc1ccc(-n2ccc(OCCOc3ccccc3)cc2=O)cc1` [Compound 24, 4-(2-oxo-4-(2-phenoxyethoxy)pyridin-1(2H)-yl)benzonitrile] yielded an IC50 above 30 µM. In addition, at rat mGlu3, half-maximal inhibition (IC50) required 3.17 µM and the remaining activity at 30 µM was determined as 0.49%.

For `O=c1cc(OCCOc2ccccc2)ccn1-c1ccc(F)nc1` [Compound 25, 6′-fluoro-4-(2-phenoxyethoxy)-2H-[1,3′-bipyridin]-2-one], at rat mGlu2, the IC50 is above 30 µM. At rat mGlu3, the 50% inhibitory concentration (IC50) was 6.75 µM and the remaining activity at 30 µM is -2.95%.

Turning to `O=c1cc(OCCOCc2ccccc2)ccn1-c1ccc(F)cc1` [W, 4-(2-(Benzyloxy)ethoxy)-1-(4-fluorophenyl)pyridin-2(1H)-one], at rat mGlu3, the IC50 was determined as 13 µM and the remaining activity at 30 µM came out at 14.5%.

By IC50 is commonly meant the midpoint of a concentration-inhibition curve.
